Data set [1] is described as follows: in vitro corneal drug permeation (perfusion chamber, HPLC). In kind it is in vitro ADME, NZA rabbits. Conditions: continued drug perfusion of the corneal epithelium, excised rabbit cornea, GBR buffer. The protocol: Freshly excised corneas were obtained from 6-week old NZA rabbits (1.3-1.5 kg). Corneas were mounted in a modified Lucite perfusion chamber and perfused with glutathione-supplemented bicarbonated Ringer (GBR) buffer as previously described^1. Drug concentrations in GBR buffer were as indicated (FIG. 1), with the corneal epithelial cell layer facing the drug containing donor compartment. The final volume of the donor and receiver side of the perfusion chamber was 7.0 mL. Samples of 0.1 mL were withdrawn from both chambers at the beginning of the experiment and at 20 to 30 minute intervals thereafter through six hours. Samples were mixed with an equal volume of methanol and immediately subjected to HPLC analysis. HPLC analysis was carried out on a 25 cm×4.6 mm I.D. Spherosorb RP-18, 10μ column at a flow rate of 2.0 ml/min. The column effluent was monitored with a flow monitor at a wavelength of 230 nm. Elution of NSAID free acids and amides was accomplished with an eluant mixture composed of methanol:water:phosphoric acid (60/40/1 (v/v/v)) (pH 3.0). The eluant mixture was changed to methanol:water:phosphoric acid (60/40/1 (v/v/v)) (pH 3.0) when suprofen and suprofen amide were subjected to HPLC analysis.

Data set [2] has as its system paracentesis-induced breakdown of the BAB. In words: inhibition of trauma-induced ocular inflammation (rabbit model of paracentesis). In kind it is in vivo. Conditions: for inhibition of paracentesis-induced breakdown of the BAB: single 50 μL topical ocular drop of 0.1% solution/suspension 45 minutes prior to paracentesis, rabbit; for topical ocular in vivo antiinflammatory activity (result in words): 0.1% topical ocular dose, rabbit paracentesis model. The protocol: Effects of a single prophylactic topical ocular dose of the tested compounds were examined in a rabbit model of paracentesis (Graff, et al., Ocular Immunol. Inflamm., 6:227-238 (1998)). Briefly, a single 50 μL drop of a 0.1% drug solution/suspension was administered topically onto the eye 45 minutes prior to paracentesis and removal of ˜150 μL of aqueous humor. Thirty minutes after execution of paracentesis aqueous humor was removed (˜100 μL) for analysis. Both pre- and post-paracentesis samples were assayed for protein and PGE2 content.

Data set [3] in a line: in vitro metabolism: hydrolytic conversion of NSAID amides to free carboxylic acids. Type of data set: in vitro ADME, NZA rabbit. Conditions: rabbit iris/ciliary body, 36° C.; for rate of drug hydrolysis by the ICB: GBR buffer pH 7.6, four to six hours; for hydrolytic bioactivation by the ICB (result in words): GBR buffer pH 7.6. The protocol:
Freshly dissected iris/ciliary body from the NZA rabbit was incubated at 36° C. for a period of four to six hours in 0.5 ml of GBR buffer (pH 7.6) supplemented with amide derivatives of the indicated NSAIDs. Samples of 0.1 ml were removed for HPLC analysis to monitor the hydrolytic conversion of NSAID amides to free carboxylic acids.

The compound `NC(=O)Cc1cccc(C(=O)c2ccccc2)c1N` [amide derivative of amfenac] yielded a permeation coefficient in data set [1] of 7.4 cm/min^−1×10^−5. Also, in data set [2], the “inhibition of paracentesis-induced breakdown of the BAB” value (shortened to “inhibition”) was 64%. Moreover, the “rate of drug hydrolysis by the ICB” value in data set [3] turned out to be 0.69 nM/min/mg tissue.

For the compound `NC(=O)Cc1cccc(C(=O)c2ccc(Br)cc2)c1N` [amide derivative of bromfenac], the “rate of drug hydrolysis by the ICB” value in data set [3] is given as 0.17 nM/min/mg tissue.

On to `NC(=O)Cc1ccccc1Nc1c(Cl)cccc1Cl` [amide derivative of diclofenac], for which the permeation coefficient in data set [1] is 7.8 cm/min^−1×10^−5. Moreover, the “topical ocular in vivo antiinflammatory activity (result in words)” value in data set [2] is given as “no antiinflammatory effects were detectable”. The “hydrolytic bioactivation by the ICB (result in words)” value (from here on “hydrolytic bioactivation by the ICB”) in data set [3] is “resistant to hydrolytic bioactivation”.

As to `CC(C(N)=O)c1ccc(-c2ccccc2)c(F)c1` (stereo not drawn) [amide derivative of flurbiprofen, 2-(3-fluoro-4-phenyl)-propionamide], the “inhibition” value in data set [2] is listed as 29%. For the same compound, the “rate of drug hydrolysis by the ICB” value in data set [3] is given as 0.29 nM/min/mg tissue.

As for `NC(=O)C1CCn2c(C(=O)c3ccccc3)ccc21` (stereo not drawn) [amide derivative of ketorolac, 5-benzoyl-2,3-dihydro-1H-pyrrolizine-1-carboxamide], the “rate of drug hydrolysis by the ICB” value in data set [3] amounted to 2.42 nM/min/mg tissue.

On to `CC(C(N)=O)c1ccc(C(=O)c2cccs2)cc1` (stereo not drawn) [amide derivative of suprofen, α-methyl-4-(2-thienylcarbonyl)-benzeneacetamide], for which, in data set [3], the “hydrolytic bioactivation by the ICB” value is recorded as “resistant to hydrolytic bioactivation”.

As to `CN(C)C(=O)Cc1cccc(C(=O)c2ccc(Br)cc2)c1N` [dimethyl amide derivative of bromfenac, N,N-dimethyl 2-amino-3-(4-bromobenzoyl)benzeneacetamide], the “topical ocular in vivo antiinflammatory activity (result in words)” value in data set [2] is given as “no antiinflammatory effects were detectable”. The “hydrolytic bioactivation by the ICB” value in data set [3] is “resistant to hydrolytic bioactivation”.

Consider `CC(C(=O)O)c1ccc(-c2ccccc2)c(F)c1` (stereo not drawn) [flurbiprofen], for which the “inhibition” value in data set [2] amounted to 50%.

Regarding `CNC(=O)Cc1cccc(C(=O)c2ccc(Br)cc2)c1N` [monomethyl amide derivative of bromfenac, N-methyl 2-amino-3-(4-bromobenzoyl)benzeneacetamide], the “rate of drug hydrolysis by the ICB” value in data set [3] came out at 0.16 nM/min/mg tissue.

For the origin of these results see patent US6646003B2, “Method of treating ocular inflammatory and angiogenesis-related disorders of the posterior segment of the eye using an amide derivative of flurbiprofen or ketorolac” (Alcon, Inc., priority 2001, dated 2003).
